Data on twelve molecules can be found in ChEMBL document CHEMBL1130957, “Functional characteristics of a series of N4-substituted 1-(2,3-dihydro-1,4-benzodioxin-5-yl)piperazines as 5-HT1A receptor ligands. Structure-activity relationships” (Bioorg Med Chem Lett, 1998).

The structures appear in SMILES notation.

Assay [1] deals with T1, 5-hydroxytryptamine receptor 1A (Homo sapiens, UniProt P08908).
T1 sequence (P08908 whole entry): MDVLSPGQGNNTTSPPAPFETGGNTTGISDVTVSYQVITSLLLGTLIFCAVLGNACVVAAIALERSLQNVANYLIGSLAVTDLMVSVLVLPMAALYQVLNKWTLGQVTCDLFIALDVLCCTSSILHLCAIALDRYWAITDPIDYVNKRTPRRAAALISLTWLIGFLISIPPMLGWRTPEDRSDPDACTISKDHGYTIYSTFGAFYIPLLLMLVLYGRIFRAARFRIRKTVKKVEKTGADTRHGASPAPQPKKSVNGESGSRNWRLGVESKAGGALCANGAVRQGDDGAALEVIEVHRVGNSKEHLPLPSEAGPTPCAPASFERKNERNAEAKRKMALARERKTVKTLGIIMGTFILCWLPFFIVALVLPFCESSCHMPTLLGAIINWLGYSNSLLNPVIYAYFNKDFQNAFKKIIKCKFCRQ
In words: Compound was tested for its potency against human 5-hydroxytryptamine 1A receptor expressed in CHO cells (experiment 2). Format: functional, cell-based.

In assay [2] the target is T1, 5-hydroxytryptamine receptor 1A. Nature of the assay: Potency against human 5-hydroxytryptamine 1A receptor expressed in CHO cells (experiment 1). Format: functional, cell-based.
The target of assay [3] is T2, 5-hydroxytryptamine receptor 1A (Homo sapiens) (UniProt P08908).
T2 sequence (whole entry): T1 sequence (P08908 whole entry)
In words: Agonistic efficacy in adenylyl cyclase assay in CHO cells expressing human 5-HT1A receptor (experiment 2). Format: functional, cell-based.

The target in assay [4] is T3, 5-hydroxytryptamine receptor 1A (Rattus norvegicus, UniProt P19327).
T3 sequence (P19327 whole entry): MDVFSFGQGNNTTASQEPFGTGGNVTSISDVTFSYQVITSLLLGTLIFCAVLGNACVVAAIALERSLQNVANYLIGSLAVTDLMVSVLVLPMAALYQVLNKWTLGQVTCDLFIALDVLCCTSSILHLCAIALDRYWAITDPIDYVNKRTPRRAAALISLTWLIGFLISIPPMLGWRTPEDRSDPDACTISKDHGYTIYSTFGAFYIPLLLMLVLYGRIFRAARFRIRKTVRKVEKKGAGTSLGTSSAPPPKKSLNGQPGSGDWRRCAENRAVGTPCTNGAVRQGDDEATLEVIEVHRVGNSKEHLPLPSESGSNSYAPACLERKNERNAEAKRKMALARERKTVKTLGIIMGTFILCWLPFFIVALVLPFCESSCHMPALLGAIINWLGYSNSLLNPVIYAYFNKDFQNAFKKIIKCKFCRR
Nature of the assay: (§1) Compound was tested for its potency against 5-hydroxytryptamine 1A receptor in rat frontal cortex membranes (experiment 2). Format: cell membranes, Membrane. The settings on record: read-out: pA2 (converted).

Assay [5] has as its target T2, 5-hydroxytryptamine receptor 1A (Homo sapiens). Nature of the assay: Antagonistic efficacy as adenylyl cyclase assay in CHO cells expressing human 5-HT1A receptor (experiment 1). Format: functional, cell-based.
Assay [6] has the same target. Nature of the assay: Agonistic efficacy as adenylyl cyclase assay in CHO cells expressing human 5-HT1A receptor (experiment 1). Format: functional, cell-based.
Assay [7] shares this target. In words: Antagonistic efficacy as adenylyl cyclase assay in CHO cells expressing human 5-HT1A receptor (experiment 2). Format: functional, cell-based.
Assay [8] concerns the target T1, 5-hydroxytryptamine receptor 1A. Nature of the assay: Compound was tested for its potency against 5-hydroxytryptamine 1A receptor expressed in CHO cells (experiment 2). Format: functional, cell-based.
In assay [9] the target is T3, 5-hydroxytryptamine receptor 1A.
Description: Inhibition of [3H]8-OH-DPAT binding to 5-hydroxytryptamine 1A receptor of rat frontal cortex membranes
Assay [10] deals with T1, 5-hydroxytryptamine receptor 1A.
The target in assay [11] is T2, 5-hydroxytryptamine receptor 1A (Homo sapiens). Nature of the assay: Antagonistic efficacy was evaluated by adenylyl cyclase assay in CHO cells stably expressing the human 5-HT1A receptor. Format: functional, cell-based.
In assay [12] the target is T3, 5-hydroxytryptamine receptor 1A. Described as §1. Format: functional, cell membranes, Membrane. The settings on record: read-out: pA2 (converted).
The target in assay [13] is T2, 5-hydroxytryptamine receptor 1A (Homo sapiens). In words: Antagonistic efficacy was evaluated by adenylyl cyclase assay in CHO cells stably expressing the human 5-HT1A receptor (experiment 2). Format: functional, cell-based.
Assay [14] shares this target. In words: Agonistic efficacy was evaluated by adenylyl cyclase assay in CHO cells stably expressing the human 5-HT1A receptor (experiment 2). Format: functional, cell-based.
The target is the same in assay [15]. Nature of the assay: Antagonistic efficacy was evaluated by adenylyl cyclase assay in CHO cells stably expressing the human 5-HT1A receptor (experiment 1). Format: functional, cell-based.
In assay [16] the target is T3, 5-hydroxytryptamine receptor 1A. Nature of the assay: Compound was tested for its potency against 5-hydroxytryptamine 1A receptor in rat frontal cortex membranes (experiment 1). Format: cell membranes, Membrane. Particulars: read-out: pA2 (converted).

In the case of `c1ccc(CCCCN2CCN(c3cccc4c3OCCO4)CC2)cc1`, the EC50 in assay [1] is 6.03 nM; in [2] it was 6.76 nM. The Efficacy in assay [3] turned out to be 50%; in [5], 74%; in [6] it was 45%; in [7] it was 70%. In addition, the Kb in [4] was 25.1 nM.
`O=C1c2ccccc2S(=O)(=O)N1CCN1CCN(c2cccc3c2OCCO3)CC1`: the results for the EC50 in assay [2] and in assay [8] were 251 nM and 631 nM, respectively. In addition, the Efficacy in assay [3] was found to be 86%; in assay [5] it was 0%; in assay [6], 97%; in assay [7], 0%. The molecule further gave a Ki in assay [9] of 1.23 nM.
In turn, `O=C(NCCN1CCN(c2cccc3c2OCC(CO)O3)CC1)c1ccc(F)cc1` (single isomer, unassigned) [FLESINOXAN] gave an EC50 in assay [10] of 6.61 nM. The Efficacy in [11] is 0%.
For the molecule `O=C1c2ccccc2S(=O)(=O)N1CCCCN1CCN(c2cccc3c2OCCO3)CC1`, the Efficacy in [3] is 23%; in assay [5] it was 68%; in [6], 11%; in [7] it was 65%. Also, the Kb in assay [12] is 0.363 nM. Moreover, the inhibition constant (Ki) in [9] was 0.288 nM.
Turning to `O=C1c2ccccc2C(=O)N1CCN1CCN(c2cccc3c2OCCO3)CC1`, the Efficacy in assay [3] was 30%; in assay [5], 0%; in assay [6] it was 0%; in assay [7] it was 2%. The Ki in assay [9] is 31.6 nM.
Turning to `O=C(CCCN1CCN(c2cccc3c2OCCO3)CC1)c1ccccc1`, the results for the EC50 in assay [1] and in [2] were 2.82 nM and 2.88 nM, respectively. Moreover, the Efficacy was found to be 18% in assay [13], 67% in assay [14], 33% in assay [15] and 71% in assay [6].
Take `O=C(CCCN1CCN(c2cccc3c2OCCO3)CC1)c1ccc(F)cc1`: the results for the EC50 in assay [1] and in [2] were 7.41 nM and 5.25 nM, respectively. For the same molecule, the Efficacy in assay [3] was 48%; in [5], 22%; in assay [6], 50%; in [7], 42%. In [9], the Ki is 1.35 nM.
On to `O=C1c2ccccc2C(=O)N1CCCCN1CCN(c2cccc3c2OCCO3)CC1`, for which the 50% effective concentration (EC50) is 5.75 nM in assay [1] and 1.35 nM in [2]. Also, the Kb in assay [16] is 0.661 nM; in [4] it was 0.676 nM. In addition, the Efficacy was 49% in [3], 55% in assay [5], 44% in [6] and 62% in assay [7]. Further, in assay [9], the inhibitory constant (Ki) was 0.229 nM.
Turning to `O=C(NCCCCN1CCN(c2cccc3c2OCCO3)CC1)c1ccc(F)cc1`, the EC50 was 31.6 nM in assay [1] and 12.6 nM in assay [2]. In addition, the Efficacy in assay [3] came out at 85%; in assay [5] it was 17%; in assay [6], 81%; in assay [7], 0%. In assay [9], this molecule had an inhibition constant Ki of 1.05 nM.
In assay [10], `O=C1c2ccccc2S(=O)(=O)N1CCCCN1CCN(c2ncccn2)CC1` [IPSAPIRONE] gave a half-maximal effective concentration (EC50) of 67.6 nM. Also, in assay [11], the Efficacy was 0%.
For `O=C(NCCN1CCN(c2cccc3c2OCCO3)CC1)c1ccc(F)cc1`, the EC50 in assay [1] was 0.851 nM; in assay [2], 0.955 nM. The Efficacy in assay [3] was 97%; in assay [5] it was 0%; in [6] it was 97%; in assay [7], 0%. Also, the Ki in [9] was 0.295 nM.
In the case of `O=C1c2ccccc2S(=O)(=O)N1CCCCN1CCN(c2cc(Cl)cc3c2OCCO3)CC1` [DU 125530], the Efficacy in [3] was 0%; in assay [5], 100%; in assay [6], 0%; in assay [7], 100%. Besides, the Kb in assay [12] is 0.288 nM. In [9], this molecule had an inhibition constant (Ki) of 0.708 nM.
